{
  "source": "patent US8147876B2",
  "about": "“Medical agent for preventing or treating diseases resulting from one of inflammation and remodeling, and method for preventing or treating the diseases” (National University Corporation Tokyo Medical and Dental …, priority 2007, dated 2012)",
  "origin": "cited, not measured here",
  "test_system": "VCAM-1",
  "settings": "human tracheal smooth muscle cells, J Cell Physiol. 2006",
  "data": [
    {"smiles": "COc1cc(/C=C/C(=O)CC(=O)/C=C/c2ccc(O)c(OC)c2)ccc1O", "note": "[Curcumin]", "values": [
      {"measurement": "TNFα-induced VCAM-1 expression", "value": "inhibit"}
    ]}
  ]
}
